For 19 compounds, Activity and fold change (FC) results are on record in ChEMBL document CHEMBL3880409, “Pharmaceutical compositions and their methods of use” (2008).

Data set [1] deals with T1, Neuronal acetylcholine receptor; alpha4/beta2 (Homo sapiens) (UniProt P17787+P43681). The data set can be described thus: Positive allosteric modulation at human alpha4beta2 nAChR expressed in HEK293 cells assessed as potentiation of 5-[(2R)-azetidin-2-ylmethoxy]-2-chloropyridine-induced calcium flux preincubated for 5 mins followed by agonist addition measured for 3 to 5 mins by FLIPR assay relative to control. The class given is cell-based. More on the design: concentration or dose not given beside the values.

In data set [2] the target is T1, Neuronal acetylcholine receptor; alpha4/beta2 (Homo sapiens). The data set can be described thus: Positive allosteric modulation at human alpha4beta2 nAChR expressed in HEK293 cells assessed as potentiation of (3R)-1-pyridin-3-ylpyrrolidin-3-amine-induced calcium flux preincubated for 5 mins followed by agonist addition measured for 3 to 5 mins by FLIPR assay relative to control. More on the design: concentration or dose not given beside the values. The class given is cell-based. (In general: Calcium assays in cells follow changes in intracellular calcium, usually with a dye or a luminescent sensor.)

The test system of data set [3] is Rattus norvegicus. The data set can be described thus: Antinociceptive activity in Sprague-Dawley rat assessed as reversal of tight ligation of L5-L6 spinal nerves-induced mechanical allodynia by measuring paw withdrawal threshold at 500 umol/kg, ip measured after 30 mins. The class given is functional.
Data set [4] has as its target T1, Neuronal acetylcholine receptor; alpha4/beta2 (Homo sapiens). The data set can be described thus: Positive allosteric modulation at human alpha4beta2 nAChR expressed in HEK293 cells assessed as potentiation of 5-[(2R)-azetidin-2-ylmethoxy]-2-chloropyridine-induced calcium flux at 10 uM preincubated for 5 mins followed by agonist addition measured for 3 to 5 mins by FLIPR assay relative to control. The class given is cell-based.

Data set [5] has the same target. Kind of data set: Positive allosteric modulation at human alpha4beta2 nAChR expressed in HEK293 cells assessed as potentiation of (3R)-1-pyridin-3-ylpyrrolidin-3-amine-induced calcium flux at 10 uM preincubated for 5 mins followed by agonist addition measured for 3 to 5 mins by FLIPR assay relative to control. The class given is cell-based.
The nature of data set [6]: Toxicity in ferret assessed as emesis at 3.5 umol/kg administered 30 mins prior to agonist treatment measured for 90 mins in presence of 5-[(2R)-Azetidin-2-yl methoxy]-2-chloropyridine. Also on record: species or system Mustela putorius furo. Particulars: in vivo, 1.5 h.
Data set [7] addresses T1, Neuronal acetylcholine receptor; alpha4/beta2 (Homo sapiens). The data set can be described thus: Positive allosteric modulation at human alpha4beta2 nAChR expressed in HEK293 cells assessed as potentiation of (1S,5S)-3-(3,6-diaza-bicyclo[3.2.0]hept-3-yl)-quinoline-induced calcium flux preincubated for 5 mins followed by agonist addition measured for 3 to 5 mins by FLIPR assay. The class given is cell-based.

Data set [8] is described as follows: Toxicity in ferret assessed as emesis at 3.5 umol/kg after 30 mins measured for 90 mins. Particulars: in vivo, 1.5 h. Also on record: species or system Mustela putorius furo.
The target of data set [9] is T1, Neuronal acetylcholine receptor; alpha4/beta2 (Homo sapiens). The data set can be described thus: Positive allosteric modulation at human alpha4beta2 nAChR expressed in HEK293 cells assessed as potentiation of ispronicline-induced calcium flux preincubated for 5 mins followed by agonist addition measured for 3 to 5 mins by FLIPR assay. The class given is cell-based.

Data set [10] has the same target. The data set can be described thus: Positive allosteric modulation at human alpha4beta2 nAChR expressed in HEK293 cells assessed as potentiation of 2-methyl-3-(2-(S)-pyrrolidinylmethoxy)pyridine-induced calcium flux preincubated for 5 mins followed by agonist addition measured for 3 to 5 mins by FLIPR assay. The class given is cell-based.
In data set [11] the test system is Rattus norvegicus. The data set can be described thus: Potentiation of 3 umol/kg of (1S,5S)-3-(3,6-diaza-bicyclo[3.2.0]hept-3-yl)-quinoline-induced antinociceptive activity in Sprague-Dawley rat assessed as reversal of tight ligation of L5-L6 spinal nerves-mediated mechanical allodynia by measuring paw withdrawal threshold at 35 umol/kg, ip administered prior to agonist treatment measured after 30 mins. The class given is functional.

The test system of data set [12] is Rattus norvegicus. The data set can be described thus: Potentiation of 5-[(2R)-Azetidin-2-yl methoxy]-2-chloropyridine-induced antinociceptive activity in Sprague-Dawley rat assessed as reversal of tight ligation of L5-L6 spinal nerves-mediated mechanical allodynia by measuring paw withdrawal threshold at 10 mg/kg, ip administered prior to agonist treatment measured after 30 mins (reference value: 24%). The class given is functional.

The test system of data set [13] is Rattus norvegicus. The data set can be described thus: Potentiation of 30 umol/kg of (1S,5S)-3-(3,6-diaza-bicyclo[3.2.0]hept-3-yl)-quinoline-induced antinociceptive activity in Sprague-Dawley rat assessed as reversal of tight ligation of L5-L6 spinal nerves-mediated mechanical allodynia by measuring paw withdrawal threshold at 35 umol/kg, ip administered prior to agonist treatment measured after 30 mins. The class given is functional.

Data set [14] deals with Rattus norvegicus. The data set can be described thus: Potentiation of 5-[(2R)-Azetidin-2-yl methoxy]-2-chloropyridine-induced antinociceptive activity in Sprague-Dawley rat assessed as reversal of tight ligation of L5-L6 spinal nerves-mediated mechanical allodynia by measuring increase in paw withdrawal threshold at 3.5 umol/kg, ip administered prior to agonist treatment measured after 30 mins. The class given is functional, organism-based.

Data set [15] addresses T1, Neuronal acetylcholine receptor; alpha4/beta2 (Homo sapiens). The data set can be described thus: Positive allosteric modulation at human alpha4beta2 nAChR expressed in HEK293 cells assessed as potentiation of varenicline-induced calcium flux preincubated for 5 mins followed by agonist addition measured for 3 to 5 mins by FLIPR assay. The class given is cell-based.
In data set [16] the test system is Rattus norvegicus. Kind of data set: Potentiation of 5-[(2R)-Azetidin-2-yl methoxy]-2-chloropyridine-induced antinociceptive activity in ip dosed Sprague-Dawley rat assessed as reversal of tight ligation of L5-L6 spinal nerves-mediated mechanical allodynia by measuring paw withdrawal threshold administered prior to agonist treatment measured after 30 mins. The class given is functional.

Activity calls are given as the source filed them.

With `N#Cc1ccc(-c2nc(-c3cccnc3)no2)cc1`, the Activity in [1] and in data set [2] was 150 to 200% throughout.

Take `c1cncc(-c2noc(-c3cccnc3)n2)c1`: the Activity in [1] and in data set [2] was 200 to 400% in each case.

`c1cc(-c2noc(-c3cccnc3)n2)cc(-c2nnn[nH]2)c1`: the Activity in data set [1] and in [2] was 90 to 120% in each case.

For `Oc1cncc(-c2nc(-c3cccnc3)no2)c1`, the Activity in data set [1] and in [2] was 90 to 120% in each case.

`Fc1cccc(-c2nc(-c3cccnc3)no2)c1F`: the Activity in data set [1] and in data set [2] was 200 to 400% throughout.

Consider `Fc1ccc(-c2nc(-c3cccnc3)no2)cc1F`, for which the Activity in [1] and in [2] was 200 to 400% in each case.

For the compound `CS(=O)(=O)c1cccc(-c2nc(-c3cccnc3)no2)c1`, the Activity in [1] and in data set [2] was 120 to 150% throughout.

As for `NS(=O)(=O)c1cccc(-c2nc(-c3cccnc3)no2)c1`, the Activity in data set [1] and in [2] was 200 to 400% each time.

Turning to `N#Cc1cccc(-c2noc(-c3cccnc3)n2)c1`, the Activity in [1] and in data set [2] was 200 to 400% in each case.

In the case of `N#Cc1cccc(-c2noc(-c3ccc(F)nc3)n2)c1`, the Activity in [1] and in data set [2] was 150 to 200% each time.

Regarding `NCC1(CC(=O)O)CCCCC1` [GABAPENTIN], the Activity with Rattus norvegicus [3] turned out to be 58%.

Consider `Brc1cncc(-c2nc(-c3cccnc3)no2)c1`, for which the Activity in data set [1] and in data set [2] was 120 to 150% in each case.

With `O=c1ccc(-c2noc(-c3cccnc3)n2)c[nH]1`, the Activity in data set [1] and in data set [2] was 120 to 150% each time.

For the compound `Clc1cc(-c2noc(-c3cccnc3)n2)ccn1`, the Activity in data set [1] and in data set [2] was 120 to 150% each time.

As to `O=[N+]([O-])c1cccc(-c2nc(-c3cccnc3)no2)c1`, the Activity in [1] and in [2] was 200 to 400% throughout.

Consider `CC(=O)c1cccc(-c2nc(-c3cccnc3)no2)c1`, for which the Activity in data set [1] and in data set [2] was 150 to 200% each time.

Regarding `N#Cc1cccc(-c2nc(-c3cccnc3)no2)c1`, the Activity was 200 to 400% in data set [4]; 200 to 400% in [5]; “Non-Toxic” in data set [6]; “Non-Toxic” in [8]; 41% with Rattus norvegicus [11]; 76% in the data set on Rattus norvegicus [12]. Moreover, the Activity in the data set with Rattus norvegicus [13] is 56%; in the data set on Rattus norvegicus [16], “Dose-dependent effect”; in the data set with Rattus norvegicus [16] (record 2), 33 - 63%. For the same compound, the fold change (FC) in data set [4] and in data set [5] was 10 to 100 throughout. Further, the outcome (in data set [7]; in [9]; in data set [10]; in the data set with Rattus norvegicus [14]; in data set [15]) was Active.

With `N#Cc1cccc(-c2noc(-c3ccc(Cl)nc3)n2)c1`, the Activity in data set [1] and in data set [2] was 150 to 200% throughout.

With `Cc1ccc(-c2noc(-c3cccc(C#N)c3)n2)cn1`, the Activity in [1] and in data set [2] was 150 to 200% each time.
